The experiment relates to P388 leukemia ip, CD2F1 mice, survival T/C. As to the kind of experiment: NCI In Vivo Anticancer Drug Screen. Data for tumor model P388 Leukemia (intraperitoneal) in CD2F1 (CDF1) mice. Conditions: endpoint: median survival time, higher = longer survival. In a few lines: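 Mice carrying the transplanted tumor received test compound or vehicle. Survival was recorded in each group, and the value is the treated-group measurement divided by that of the vehicle-treated control group.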

Where [1] appears, read: dose: 100.0 mg/kg/injection, schedule: Q04DX002 (ip), vehicle: saline with Tween-80.
[2] abbreviates: dose: 200.0 mg/kg/injection, schedule: Q04DX002 (ip), vehicle: saline with Tween-80.
The mark [3] stands for this setting: dose: 50.0 mg/kg/injection, schedule: Q01DX009 (ip), vehicle: saline with Tween-80.
Setting [4] is: dose: 100.0 mg/kg/injection, schedule: Q01DX009 (ip), vehicle: saline with Tween-80.
The mark [5] stands for this setting: dose: 12.5 mg/kg/injection, schedule: Q01DX009 (ip), vehicle: saline with Tween-80.
Where [6] appears, read: dose: 50.0 mg/kg/injection, schedule: Q01DX005 (ip), vehicle: saline with Tween-80.
Setting [7] is: dose: 100.0 mg/kg/injection, schedule: Q01DX005 (ip), vehicle: saline with Tween-80.
Where [8] appears, read: dose: 200.0 mg/kg/injection, schedule: Q01DX005 (ip), vehicle: saline with Tween-80.
Setting [9] is: dose: 100.0 mg/kg/injection, schedule: Q04DX003 (ip), vehicle: saline with Tween-80.
Where [10] appears, read: dose: 200.0 mg/kg/injection, schedule: Q04DX003 (ip), vehicle: saline with Tween-80.

SMILES strings stand for the structures. “And” between values parts separate entries of the source, which are not always exact repeats. Equal entries are not always repeated. Inconclusive results and toxic doses are left out.

Turning to `CCOC(=O)C1CC1C(c1cccnc1C)S(=O)(=O)c1ccccc1` (configuration not stated), the T/C was 100 % of control under setting [1]; 99 % of control under setting [2]; 97 % of control (dose: 400.0 mg/kg/injection, schedule: Q04DX002 (ip), vehicle: saline with Tween-80).
Take `CCOc1ccc(NS(=O)(=O)c2ccc(F)cc2)cc1`: the T/C is, setting by setting: (dose: 60.0 mg/kg/injection, schedule: Q01DX005 (ip), vehicle: saline with Tween-80) 99 % of control; (dose: 120.0 mg/kg/injection, schedule: Q01DX005 (ip), vehicle: saline with Tween-80) 88 % of control; (dose: 240.0 mg/kg/injection, schedule: Q01DX005 (ip), vehicle: saline with Tween-80) 95 % of control.
For `O=S(/N=C/c1ccccc1)c1ccc(Cl)cc1` (configuration not stated), the T/C under setting [3] is 96 % of control and the T/C under setting [4] was 89 % of control.
Regarding `N=C(N)c1ccc(SCCCCCSc2ccc(C(=N)N)cc2)cc1`, the T/C reads like this: (dose: 3.13 mg/kg/injection, schedule: Q01DX009 (ip), vehicle: saline with Tween-80) 117 % of control; (dose: 6.25 mg/kg/injection, schedule: Q01DX009 (ip), vehicle: saline with Tween-80) 124 % of control; under setting [5], 119 % of control.
As to `COC1/C=C\C=C(/C)C(=O)NC2=CC(=O)C(NCCCl)=C(CC(C)CC(OC)C(O)C(C)/C=C(/C)C1OC(N)=O)C2=O` (configuration not stated), the T/C was 107 % of control (dose: 1.5 mg/kg/injection, schedule: Q01DX009 (ip), vehicle: DMSO); 108 % of control (dose: 3.0 mg/kg/injection, schedule: Q01DX009 (ip), vehicle: DMSO); 115 % of control (dose: 3.12 mg/kg/injection, schedule: Q04DX002 (ip), vehicle: saline with Tween-80); 111 % of control (dose: 5.0 mg/kg/injection, schedule: Q04DX002 (ip), vehicle: saline with Tween-80); 111 % of control (dose: 6.0 mg/kg/injection, schedule: Q01DX009 (ip), vehicle: DMSO); 123 % of control (dose: 6.25 mg/kg/injection, schedule: Q04DX002 (ip), vehicle: saline with Tween-80). In addition, the T/C runs as follows: (dose: 12.0 mg/kg/injection, schedule: Q01DX009 (ip), vehicle: DMSO) 117 % of control; (dose: 12.5 mg/kg/injection, schedule: Q04DX002 (ip), vehicle: saline with Tween-80) 119 % of control; (dose: 20.0 mg/kg/injection, schedule: Q04DX002 (ip), vehicle: saline with Tween-80) 122 % of control.
For `CC(C)CCNO`, the T/C was 96 % of control under setting [6], 100 % of control under setting [7] and 93 % of control under setting [8].
The corresponding values for `Nc1nnc(CCC(=O)Nc2cccc(C(F)(F)F)c2)n1N` are 107 % of control, 105 % of control and 90 % of control.
Take `C/C=C/c1cc2c(c(=O)o1)C(=O)[C@@H](O)[C@H](C)O2`: the T/C runs as follows: under setting [5], 101 % of control; (dose: 25.0 mg/kg/injection, schedule: Q01DX009 (ip), vehicle: saline with Tween-80) 101 % of control; (dose: 44.0 mg/kg/injection, schedule: Q01DX009 (ip), vehicle: saline with Tween-80) 112 % of control; under setting [3], 110 % of control; (dose: 66.0 mg/kg/injection, schedule: Q01DX009 (ip), vehicle: saline with Tween-80) 121 % of control.
For the compound `N#CN(Cc1ccccc1)Cc1ccccc1.[Br][Sn]([c]1ccccc1)([c]1ccccc1)[c]1ccccc1`, the T/C runs as follows: (dose: 3.12 mg/kg/injection, schedule: Q01DX005 (ip), vehicle: saline with Tween-80) 100 % of control; (dose: 6.25 mg/kg/injection, schedule: Q01DX005 (ip), vehicle: saline with Tween-80) 100 % of control; (dose: 12.5 mg/kg/injection, schedule: Q01DX005 (ip), vehicle: saline with Tween-80) 91 % of control; under setting [6], 114 % of control.
As for `Cc1cc(NCCCCCCCNc2cc(C)nc3cc(N)ccc23)c2ccc(N)cc2n1`, the T/C was 165 % of control (dose: 1.56 mg/kg/injection, schedule: Q01DX009 (ip), vehicle: other); 158 % of control (dose: 3.13 mg/kg/injection, schedule: Q01DX009 (ip), vehicle: other); 186 % of control and 196 % of control (dose: 6.25 mg/kg/injection, schedule: Q01DX009 (ip), vehicle: other); 157 % of control and 186 % of control (dose: 12.5 mg/kg/injection, schedule: Q01DX009 (ip), vehicle: other).
On to `CC(C)=CCCC(C)=CCON(C)C` (mixture of isomers), for which the T/C reads like this: under setting [1], 92 % of control; under setting [2], 101 % of control.
As to `O=Nc1c(O)c2ccccc2c2ccccc12`, the T/C runs as follows: (dose: 25.0 mg/kg/injection, schedule: Q01DX005 (ip), vehicle: Klucel (hydroxypropylcellulose) (HPC)) 102 % of control; (dose: 50.0 mg/kg/injection, schedule: Q01DX005 (ip), vehicle: Klucel (hydroxypropylcellulose) (HPC)) 102 % of control; (dose: 100.0 mg/kg/injection, schedule: Q01DX005 (ip), vehicle: Klucel (hydroxypropylcellulose) (HPC)) 112 % of control.
For `S=C(Nc1ccc(Br)cc1)SCc1ccc2c(c1)OCO2`, the T/C reads like this: (dose: 50.0 mg/kg/injection, schedule: Q01DX009 (ip), vehicle: suspension in saline) 109 % of control; (dose: 100.0 mg/kg/injection, schedule: Q01DX009 (ip), vehicle: suspension in saline) 119 % of control; (dose: 200.0 mg/kg/injection, schedule: Q01DX009 (ip), vehicle: suspension in saline) 93 % of control.
As to `O=C1C=CC2(O)CCCN12` (configuration not stated), the T/C (dose: 5.0 mg/kg/injection, schedule: Q01DX005 (ip), vehicle: saline) is 106 % of control; the T/C (dose: 10.0 mg/kg/injection, schedule: Q01DX005 (ip), vehicle: saline) is 110 % of control; the T/C (dose: 20.0 mg/kg/injection, schedule: Q01DX005 (ip), vehicle: saline) was 118 % of control.
Take `COC(=O)c1cc(=O)n(-c2ccc(OC)cc2)c(SC)n1`: the T/C is 100 % of control under setting [9] and 91 % of control under setting [10].
As to `O=C1NNC(=O)C1C(=O)Nc1ccccc1`, the T/C was 100 % of control (dose: 0.93 mg/kg/injection, schedule: Q01DX005 (ip), vehicle: Klucel (hydroxypropylcellulose) (HPC)); 103 % of control (dose: 1.87 mg/kg/injection, schedule: Q01DX005 (ip), vehicle: Klucel (hydroxypropylcellulose) (HPC)); 100 % of control (dose: 3.75 mg/kg/injection, schedule: Q01DX005 (ip), vehicle: Klucel (hydroxypropylcellulose) (HPC)); 113 % of control (dose: 15.0 mg/kg/injection, schedule: Q01DX005 (ip), vehicle: Klucel (hydroxypropylcellulose) (HPC)).
In the case of `CSC(SC)(SC)SC`, the T/C by setting is: under setting [3], 94 % of control; under setting [4], 109 % of control.
On to `C1=C(c2ccccc2)N=C(c2nncc3ccccc23)C1(c1ccccc1)c1ccccc1`, for which the T/C by setting is: under setting [9], 101 % of control; under setting [10], 101 % of control; (dose: 400.0 mg/kg/injection, schedule: Q04DX003 (ip), vehicle: saline with Tween-80) 96 % of control.
In the case of `CN(C)S(=O)(=O)c1cccc(N)c1`, the T/C is, setting by setting: (dose: 25.0 mg/kg/injection, schedule: Q04DX003 (ip), vehicle: saline with Tween-80) 93 % of control; (dose: 50.0 mg/kg/injection, schedule: Q04DX003 (ip), vehicle: saline with Tween-80) 95 % of control; under setting [9], 100 % of control; under setting [10], 94 % of control.
Turning to `C=C(C)C(=O)NC(C)C(=O)O` (configuration not stated), the T/C reads like this: (dose: 50.0 mg/kg/injection, schedule: Q01DX009 (ip), vehicle: saline) 106 % of control; (dose: 100.0 mg/kg/injection, schedule: Q01DX009 (ip), vehicle: saline) 100 % of control; (dose: 200.0 mg/kg/injection, schedule: Q01DX009 (ip), vehicle: saline) 100 % of control.
Take `CC(C)(C)N=C(CCN1CCCCC1)Nc1cccc(Cl)c1`: the T/C under setting [3] was 110 % of control; the T/C under setting [4] is 106 % of control; the T/C (dose: 200.0 mg/kg/injection, schedule: Q01DX009 (ip), vehicle: saline with Tween-80) is 98 % of control.
Consider `CCOC(=O)C1NC(=O)C(C(=O)OCC)NC1=O` (configuration not stated), for which the T/C is, setting by setting: under setting [6], 96 % of control; under setting [7], 92 % of control; under setting [8], 93 % of control.
For `CC(=O)n1[nH]c(=O)ccc1=O`, the T/C (dose: 100.0 mg/kg/injection, schedule: Q04DX003 (ip), vehicle: saline) was 115 % of control; the T/C (dose: 200.0 mg/kg/injection, schedule: Q04DX003 (ip), vehicle: saline) is 107 % of control; the T/C (dose: 400.0 mg/kg/injection, schedule: Q04DX003 (ip), vehicle: saline) was 115 % of control.

(Values after PubChem BioAssay AID330 (DTP/NCI, 2004).)
